The NIST ThermoML archive (doi:10.1016/j.jct.2012.11.020)
Numbers after ± are expanded uncertainties.

How the values were obtained:
[1] = 100 kPa, Liquid; for viscosity: Cone and plate viscometry; for mass density: Vibrating tube method; for electrical conductivity: Alternating current cell with electrodes
[2] = xn = mol fraction of the nth substance listed; settings: 100 kPa, Liquid, x2 = 0; for viscosity: Cone and plate viscometry; for mass density: Vibrating tube method

SMILES	viscosity ([1]; 283.15 K)	mass density ([1]; 283.15 K)	viscosity ([1]; 293.15 K)	mass density ([1]; 293.15 K)	viscosity ([1]; 303.15 K)	mass density ([1]; 303.15 K)	viscosity ([1]; 313.15 K)	mass density ([1]; 313.15 K)	viscosity ([1]; 323.15 K)	mass density ([1]; 323.15 K)	viscosity ([1]; 333.15 K)	mass density ([1]; 333.15 K)	viscosity ([1]; 343.15 K)	mass density ([1]; 343.15 K)	viscosity ([1]; 353.15 K)	mass density ([1]; 353.15 K)	other results
CC1COC(=O)O1 (configuration not stated) [4-methyl-1,3-dioxolan-2-one]	4.25 mPa·s	1216.3 ± 2.4 kg/m3	2.96 mPa·s	1205.2 ± 2.4 kg/m3	2.2 mPa·s	1194.5 ± 2.4 kg/m3	1.8 mPa·s	1183.9 ± 2.4 kg/m3	1.56 mPa·s	1173.4 ± 2.3 kg/m3	1.4 mPa·s	1162.9 ± 2.3 kg/m3	1.26 mPa·s	1152.3 ± 2.3 kg/m3	1.15 mPa·s	1141.6 ± 2.3 kg/m3	
CC1COC(=O)O1 (configuration not stated) [4-methyl-1,3-dioxolan-2-one] + C1CC[NH2+]C1.O=[N+]([O-])[O-]																	viscosity ([2]; 283.15 K): 4.25 mPa·s; mass density ([2]; 283.15 K): 1216.3 ± 2.4 kg/m3; viscosity ([2]; 293.15 K): 2.96 mPa·s; mass density ([2]; 293.15 K): 1205.2 ± 2.4 kg/m3; viscosity ([2]; 303.15 K): 2.2 mPa·s; mass density ([2]; 303.15 K): 1194.5 ± 2.4 kg/m3; viscosity ([2]; 313.15 K): 1.8 mPa·s; mass density ([2]; 313.15 K): 1183.9 ± 2.4 kg/m3; viscosity ([2]; 323.15 K): 1.56 mPa·s; mass density ([2]; 323.15 K): 1173.4 ± 2.3 kg/m3; viscosity ([2]; 333.15 K): 1.4 mPa·s; mass density ([2]; 333.15 K): 1162.9 ± 2.3 kg/m3; viscosity ([2]; 343.15 K): 1.26 mPa·s; mass density ([2]; 343.15 K): 1152.3 ± 2.3 kg/m3; viscosity ([2]; 353.15 K): 1.15 mPa·s; mass density ([2]; 353.15 K): 1141.6 ± 2.3 kg/m3
C1CC[NH2+]C1.O=[N+]([O-])[O-] [pyrrolidinium nitrate]	58.87 mPa·s	1235 ± 2.8 kg/m3	40.29 mPa·s	1228 ± 2.7 kg/m3	28.81 mPa·s	1220.4 ± 2.7 kg/m3	20.91 mPa·s	1213.1 ± 2.7 kg/m3	16.7 mPa·s	1205.5 ± 2.7 kg/m3	13.3 mPa·s	1197.2 ± 2.7 kg/m3	11.17 mPa·s	1190.2 ± 2.6 kg/m3	9.28 mPa·s	1182 ± 2.6 kg/m3	electrical conductivity ([1]; 284.15 K): 2.93 ± 0.23 S/m; electrical conductivity ([1]; 293.15 K): 3.71 ± 0.3 S/m; electrical conductivity ([1]; 298.15 K): 4.22 ± 0.34 S/m; electrical conductivity ([1]; 304.15 K): 4.94 ± 0.4 S/m; electrical conductivity ([1]; 313.15 K): 5.97 ± 0.48 S/m; electrical conductivity ([1]; 323.15 K): 7.17 ± 0.57 S/m; electrical conductivity ([1]; 333.15 K): 8.51 ± 0.68 S/m; electrical conductivity ([1]; 344.95 K): 9.3 ± 0.74 S/m; electrical conductivity ([1]; 353.65 K): 10.5 ± 0.84 S/m
